Literature values in US20070104771A1, “Transdermal galantamine delivery system” (priority 2005, published 2007).

## COc1ccc2c3c1OC1CC(O)C=CC31CCN(C)C2 (stereo not shown) [galantamine, 4a, 5,9, 10, 11, 12-Hexahydro-3-methoxy-11-methyl-6H-benzofuro (3a, 3,2-ef) (2) benzazepin-6-ol]
  oral bioavailability: 90%
